Values joined by “and” are separate entries in the source; they are usually repeats but may differ in a detail not shown here. Equal entries are not always repeated. Values belong to the compound of their own block, whether it stands above or below them.
What was measured:
H4IIEC3 cells = test: Oxidation of 14C-palmitate (14C-CO2 production); format: cell-based; settings: resveratrol 10 μM, AICAR 500 μM, metformin 1 mM; 4 hours; vehicle 1
Procedure: (§1) Oxidation of ^14C-palmitate to acid-soluble products (modified from […] cells ([…]. and B. E. Kemp, J Biol Chem (1992) 267(5): 2864-7) and HepG2 cells were maintained as described above. Cells (10^6 cells/T25) were seeded in a T25 flask one day prior to the experiment. […] At the end of incubation, the cap of each […]per and a 1'×1.5'' Whatman filter paper soaked with 250 μl 2N NaOH. Each flask was injected with 2 ml of 6N HCL, placed in a horizontal position for 10 minutes and left standing overnight. […] The experiment was repeated three times.

HepG2 cells = test: Oxidation of 14C-palmitate (14C-CO2 production); format: cell-based; settings: resveratrol 10 μM, AICAR 500 μM, metformin 1 mM; 4 hours; vehicle 1
Procedure: as §1

C. elegans = C. elegans fat accumulation, Nile Red staining; format: in vivo; settings: for Concentration as low as which fat accumulation is reduced: 10, 50 and 100 μM tested
Procedure: Fat accumulation was visualized with Nile Red staining, as described further below and in Ashrafi K, et al. Nature 421:268-27 (2003).
Synchronized starved L1 worms were grown in the presence of Nile Red. Strains were grown on NGM plates at 25° C. for approximately 48 hours until the young adult stage was reached. 20-30 young adult worms were then washed 2× with M9 buffer and transferred to new NGM/Nile red experimental plates that contained either OP50 or HTT5 E. coli carrying the L4440 RNAi control vector.
Young adults were transferred to plates containing the appropriate vector, Nile Red stain and drug then maintained at 25° C.
Nile Red: Nile Red Powder (Sigma #N-3013) was dissolved in acetone at 500 μg/ml, diluted in 1× Phosphate Buffered Saline (PBS) including appropriate drug and applied to surface of Nematode Growth Media (NGM) plates previously seeded with OP50 or RNAi bacteria, at a final concentration of 0.05 μg/ml. Fat content was monitored and recorded by fluorescence microscopy.

[1] = target: T1, SIRT1 deacetylase (BIOMOL) (Homo sapiens, UniProt Q96EB6); test: High-throughput SIRT1 screening protocol (Fluor de Lys-SIRT1, 384 well); format: biochemical; settings: positive controls; roughly 50 μM, 200 μM NAD+, 5 μM Fluor de Lys-SIRT1
T1 construct: purchased BIOMOL
T1 sequence (Q96EB6 1-747): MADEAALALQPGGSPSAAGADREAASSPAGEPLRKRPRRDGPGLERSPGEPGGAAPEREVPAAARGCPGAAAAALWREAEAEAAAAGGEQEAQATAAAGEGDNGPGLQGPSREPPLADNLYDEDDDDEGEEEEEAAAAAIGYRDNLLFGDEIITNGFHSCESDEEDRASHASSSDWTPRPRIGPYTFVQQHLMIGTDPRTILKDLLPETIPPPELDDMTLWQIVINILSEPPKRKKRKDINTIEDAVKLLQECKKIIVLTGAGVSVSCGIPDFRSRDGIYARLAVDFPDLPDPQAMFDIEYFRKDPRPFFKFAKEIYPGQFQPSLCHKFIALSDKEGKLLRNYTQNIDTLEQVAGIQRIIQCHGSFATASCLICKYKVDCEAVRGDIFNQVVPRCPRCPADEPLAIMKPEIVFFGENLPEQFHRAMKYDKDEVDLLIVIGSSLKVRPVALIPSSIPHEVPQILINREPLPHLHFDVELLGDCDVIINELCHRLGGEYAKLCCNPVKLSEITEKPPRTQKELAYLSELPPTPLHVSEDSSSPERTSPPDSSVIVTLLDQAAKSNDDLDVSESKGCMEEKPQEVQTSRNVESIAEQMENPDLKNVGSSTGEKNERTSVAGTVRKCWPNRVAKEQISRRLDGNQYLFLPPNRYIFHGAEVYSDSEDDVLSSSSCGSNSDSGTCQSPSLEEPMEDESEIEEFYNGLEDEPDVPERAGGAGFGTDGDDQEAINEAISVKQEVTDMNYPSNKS
Procedure: The reaction mixture contains (final): 0.5 units/reaction SIRT1 deacetylase (BIOMOL); 200 μM NAD^+; 5 μM Fluor de Lys-SIRT1 substrate (BIOMOL); buffer (25 mM Tris/Cl, pH 8.0, 137 mM NaCl, 2.7 mM KCl, 1 mM MgCl2, and 1 mg/ml BSA). In addition, a reaction mixture containing no enzyme was made so that each well receiving compound has a corresponding “no enzyme control” well. Reactions were performed in black 384 well plates (NUNC) in a final volume of 25 μl/well.
The reactions were started by combining enzyme and substrate in a reaction mixture immediately prior to aliquoting in plates (or substrate only for “no enzyme control” plates). Mixture were aliquoted to plates using Biotek μFill (Biotek Instruments). Control mixtures were manually added to designated wells. A library compound was added at a desired concentration by pin transfer to both “with enzyme” and “no enzyme” plates. Compounds were added in at least triplicate (with enzyme reaction in duplicate and no enzyme controls) at a final concentration of roughly 50 μM. The plates were incubated at 37° C. for 30-60 minutes. Then 25 μl of 1× Developer II (BIOMOL) plus 2 mM nicotinamide were added to all wells to stop the reactions. The reactions were left for at least 30 minutes at 37° C. for the signal to develop. The plates were read in a microplate-reading fluorometer capable of excitation at a wavelength in the range of 350-380 nm and detection of emitted light in the range of 440-460 nm. A read time of 0.1 sec per well was used.

recombinant human SIRT1 = target: T2, recombinant human SIRT1 (Homo sapiens, UniProt Q96EB6); test: SIRT1 fluorescent deacetylation assay (p53-382 acetylated peptide); format: biochemical
T2 sequence (Q96EB6 1-747): T1 sequence (Q96EB6 1-747)

S. cerevisiae = test: Yeast replicative lifespan by micro-manipulation; format: cell-based; settings: 10 μM
Procedure: Average lifespan for wild type, 22.9 generations, quercetin, 23.4; piceatannol.
Lifespan measurements were performed using PSY316AT MATα as previously described^35. All compounds for lifespan analyses were dissolved in 95% ethanol and plates were dried and used within 24 hours. Prior to lifespan analysis, cells were pre-incubated on their respective media for at least 15 hours. Following transfer to a new plate, cells were equilibrated on the medium for a minimum of 4 hours prior to micro-manipulating them. At least 30 cells were examined per experiment and each experiment was performed at least twice. Statistical significance of lifespan differences was determined using the Wilcoxon rank sum test. Differences are stated to be significant when the confidence is higher than 95%.

[2] = target: p53-382 acetylated peptide substrate ('Fluor de Lys-SIRT1', BIOMOL) (human) (UniProt P04637)
D. melanogaster = D. melanogaster survival (lifespan) assay; format: in vivo
Procedure: Survival assays were conducted independently with adult D. melanogaster in two laboratories. In the first laboratory, all trials used an yw marked wild-type strain. Larvae were reared on standard cornmeal-sugar-yeast (CSY) agar diet (cornmeal 5%, sucrose 10.5%, SAF yeast 2%, and agar 0.7%). Newly eclosed adults were placed in 1 L demography cages with approximately 75 males and 75 females. Three to four replicate 1 L demography cages were used for each treatment group in each trial. Every two days, dead flies were removed and scored, and food vials were replenished. Food vials contained cornmeal-sugar-yeast diet with SAF yeast as either 2% or 3% by weight. Test compounds in 100 μl of EtOH (or blank EtOH in controls) were mixed into melted aliquots of the adult food media to make a final concentration of 0, 10 or 100 μM. Fresh stock solutions and adult media were prepared weekly. In the second laboratory, lifespan trials were conducted with the wild type strain Canton-S, dSir2^4.5 and dSir2^5.26 (S. Smolik, University of Oregon), dSir2^17 (S. Astrom, Stockholm University, Sweden), and dSir2^KG00871 (Drosophila Stock Center, Bloomington, Ind.). Larvae for all tests were reared on standard cornmeal-sugar-yeast diet. Newly eclosed adults were incubated in plastic shell vials containing 5 ml of 15% sugar-yeast diet (15% SY) or 5% sugar-yeast (5% SY) diet (15% SY: 15% yeast, 15% sucrose, 2% agar; 5% SY: 5% yeast, 5% sucrose, 2% agar as per Ref.^20). In all trials, ˜20 males with ˜20 females were placed into each of 10 vials/treatment group. Every two days, flies were passed into new vials and dead flies were counted. […] Final compound concentrations were 0, 10, 100 or 200 μM. Fresh stock solution and adult media was prepared weekly.

[3] = system: AMPK at Thr172 and ACC at serine 79; test: AMPK and ACC phosphorylation Western in CHO-HIR cells; format: cell-based; settings: AICAR 500 μM; resveratrol 12.5, 25 or 50 μM; 30 minutes
[4] = system: TNF-alpha treated adipocytes; test: Radioactive glucose uptake in TNF-alpha treated insulin resistant adipocytes; format: cell-based; settings: resveratrol 5 μM or 15 μM; roziglitazone 4 μM

Compound: CN(C)C(=N)N=C(N)N [Metformin]
14C-CO2 production (nmol/hr/10^6 cells) (Fold Effect) (H4IIEC3 cells): 2 fold | 14C-CO2 production (nmol/hr/10^6 cells) (Fold Effect) (HepG2 cells): 3.5 fold

Compound: C(=C/c1ccccc1)/c1ccccc1 [cis-stilbene, cis-Stilbene]
Fat staining (C. elegans; 100 μM, 48 hours, control 2.5% v/v DMSO): No significant effect

Compound: COc1ccc(/C=C/c2cc(O)cc(O)c2)cc1 [BML-233, 3,5-Dihydroxy-4′-methoxy-trans-stilbene]
Activation of SIRT1 [1]: 2.1 fold

Vmax decrease (recombinant human SIRT1; 50 μM nicotinamide, absence of resveratrol, two determinations (varying NAD+ or p53-382 peptide)): 30% and 36%
Compound: NC(=O)c1cccnc1 [nicotinamide]
Fat accumulation (C. elegans; 0, 1 or 10 mM nicotinamide, overnight): concentration dependent increase in fat accumulation

Stimulation of SIRT1 activity (recombinant human SIRT1; initial screen (Table 1, 100 μM)): eight
Compound: Oc1cc(O)cc(/C=C/c2ccc(O)c(O)c2)c1 [piceatannol, 3,5,3′,4′-Tetrahydroxy-trans-stilbene]
Fat mobilization (C. elegans; 100 μM, 48 hours): stimulate fat mobilization | Effect on lifespan (in words) (S. cerevisiae): no significant effect

Compound: O=c1c(O)c(-c2ccc(O)c(O)c2)oc2cc(O)cc(O)c12 [quercetin, 3,5,7,3′,4′-Pentahydroxyflavone]
Fat mobilization (C. elegans; 100 μM, 48 hours): stimulate fat mobilization | Concentration as low as which fat accumulation is reduced (C. elegans; 48 hours): 10 µM | Effect on lifespan (in words) (S. cerevisiae): no significant effect

Activation of SIRT1 [1]: 3.28 fold
Compound: Oc1cc(O)cc(/C=C/c2ccccc2)c1 [Pinosylvin, 3,5-Dihydroxy-trans-stilbene]

Km for the p53-382 acetylated peptide (SIRT1 initial deacetylation rate, fluorescence) [2]: 64 µM
Compound: His6-tagged recombinant SIRT1 (from UniProt Q96EB6) (enzyme)

Compound: O=c1c(O)c(-c2ccc(O)c(O)c2)oc2cc(O)ccc12 [fisetin, 3,7,3′,4′-Tetrahyddroxyflavone]
Fat mobilization (C. elegans; 100 μM, 48 hours): stimulate fat mobilization | Concentration as low as which fat accumulation is reduced (C. elegans; 48 hours): 10 µM | Longevity under restricted diet (D. melanogaster; restricted diet): neither resveratrol nor fisetin further increased longevity | Lifespan extension (D. melanogaster; wild type strains, males and females, independent tests, maximum): up to 23%

Compound: NC(=O)c1ncn([C@@H]2O[C@H](CO)[C@@H](O)[C@H]2O)c1N [AICAR, 5-aminoimidazole-4-carboxamide-1-beta-D-ribofuranoside]
14C-CO2 production (nmol/hr/10^6 cells) (Fold Effect) (H4IIEC3 cells): 2.3 fold | 14C-CO2 production (nmol/hr/10^6 cells) (Fold Effect) (HepG2 cells): 5 fold | Phosphorylation of AMPK and ACC [3]: stimulates phosphorylation of AMPK and ACC

Compound: roziglitazone
Insulin sensitivity (radioactive glucose uptake) [4]: increases the uptake of radioactive glucose

Source: patent publication US20060276416A1, “Methods and compositions for treating flushing and drug induced weight gain” (Sirtris Pharmaceuticals, Inc., priority 2005, published 2006)
